Experimental data: ChEMBL document CHEMBL1201862, “PubChem BioAssay data set” (2004)
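In this assay, cells in 96-well plates receive the compound at five concentrations for 48 hours. Endpoints are linearly interpolated between the surrounding concentrations. GI50: concentration for 50% inhibition of growth.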 Calls of active or inactive are those of the source. No stated cut-off is given here; in the data, active = GI50 up to about 1.1 µM and inactive = higher.

Experiments:
Assay in all cases: growth of human tumour cells (NCI), 48 h
[1] = test system: IGROV-1
[2] = test system: A498
[3] = test system: OVCAR-5
[4] = test system: KM12
[5] = test system: MDA-MB-435
[6] = test system: HOP-62
[7] = test system: OVCAR-8
[8] = test system: Malme-3M
[9] = test system: NCI-H522
[10] = test system: SF-268
[11] = test system: ACHN
[12] = test system: SN12C
[13] = test system: SR
[14] = test system: A549
[15] = test system: SK-OV-3
[16] = test system: OVCAR-3
[17] = test system: HL-60
[18] = test system: T47D
[19] = test system: RPMI-8226
[20] = test system: SK-MEL-2

Measured: GI50

Cn1c(=O)oc2cc(C(O)CN3CCN(Cc4ccc5c(c4)OCO5)CC3)ccc21 (stereo unspecified)
inactive: [1] > 100 µM | [2] > 100 µM | [3] > 100 µM | [4] > 100 µM | [5] > 100 µM | [6] > 100 µM | [7] > 100 µM | [8] > 100 µM | [9] > 100 µM | [10] > 100 µM | [11] > 100 µM | [12] > 100 µM | [13] > 100 µM | [14] > 100 µM | [15] > 100 µM | [16] > 100 µM | [17] > 100 µM | [18] > 100 µM

C=CCC1CC(n2cc(C)c(=O)[nH]c2=O)OC1CO[Si](C)(C)C(C)(C)C (stereo unspecified)
active: [13] 0.0925 µM
inactive: [1] 11.2 µM | [2] 19.1 µM | [3] 17.3 µM | [4] 12 µM | [5] 13.4 µM | [6] 18.3 µM | [19] 11.9 µM | [7] 15.1 µM | [8] 10.5 µM | [9] 10.4 µM | [10] 15.6 µM | [11] 15.4 µM | [12] 15 µM | [20] 15.5 µM | [14] 12.3 µM | [15] 14 µM | [16] 15.9 µM | [18] 10.4 µM

COc1ccccc1/C=C/c1c(N)ncnc1Nc1cccc(Cl)c1
active: [19] 0.318 µM | [13] 0.132 µM | [17] 0.282 µM
inactive: [1] 1.69 µM | [2] 12.7 µM | [3] 31.8 µM | [4] 36.5 µM | [5] 16.7 µM | [6] 19.4 µM | [7] 25.4 µM | [8] 30.5 µM | [9] 10.8 µM | [10] 16.1 µM | [11] 6.56 µM | [12] 13.5 µM | [20] 18.6 µM | [14] 14.6 µM | [16] 25.2 µM | [18] 40.4 µM
